Test results: PubChem BioAssay (NCI)
Where a name gives a salt, the structure may show the parent alone.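 Protocol summary: plate cells (96-well), add compound at 5 concentrations, incubate 48 h, interpolate endpoints linearly. TGI marks complete inhibition of growth.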 *1 amine or outer side, *2 acyl side, *3 side chain or, on linkers, in order; H or OH if unused. Where a SMILES comes first, the peptide text is derived from it. [ ]: non-standard residue; d: D form. The star is where a group is joined. X31 = CC(=O)N(C)SCC(N[*:1])C(=O)[*:2]; X47 = CC(=O)N(C)SCC(N*)/C(O)=N\O; Cbz = O=C(OCc1ccccc1)*; Boc = CC(C)(C)OC(=O)*; Tfa = O=C(C(F)(F)F)*; Bz = O=C(c1ccccc1)*; Bn = c1ccc(C*)cc1; For = O=C*

Columns and labels:
Test in all cases: DTP human tumour cell line panel, 48 h
ACHN renal = system: ACHN renal
COLO 205 colon = system: COLO 205 colon
DU-145 prostate = system: DU-145 prostate
HCT-15 colon = system: HCT-15 colon
IGROV1 ovarian = system: IGROV1 ovarian
K-562 leukemia = system: K-562 leukemia
NCI-H226 lung = system: NCI-H226 lung
NCI-H522 lung = system: NCI-H522 lung
SNB-75 CNS = system: SNB-75 CNS
UACC-257 melanoma = system: UACC-257 melanoma

SMILES	TGI (ACHN renal)	TGI (COLO 205 colon)	TGI (DU-145 prostate)	TGI (HCT-15 colon)	TGI (IGROV1 ovarian)	TGI (K-562 leukemia)	TGI (NCI-H226 lung)	TGI (NCI-H522 lung)	TGI (SNB-75 CNS)	TGI (UACC-257 melanoma)
C=CCOC(=O)N1[C@H]2C#C/C=C\C#C[C@]3(O)C(=O)C[C@H](C)[C@]24O[C@]43C2=CC(=O)C=CC21OC (some centres undefined)	63.6 µM	38.8 µM	> 100 µM	> 100 µM	67.3 µM	> 100 µM	> 100 µM	48.5 µM	82.5 µM	59 µM
CC1=NCCN=C(C)C1N=Nc1ccc2nc(C)[nH]c2c1	32.1 µM	53.6 µM	30.9 µM	> 100 µM	70.7 µM	20.1 µM	44.1 µM	61.8 µM	33.1 µM	28.6 µM
CCOC(=O)C1(C(N)=O)C(=O)c2ccncc2C1=O (centres undefined)	> 100 µM	> 100 µM	> 100 µM	> 100 µM	> 100 µM	> 100 µM	> 100 µM	> 100 µM	> 100 µM	> 100 µM
COc1cc(C=O)ccc1Oc1nnnn1-c1ccccc1		> 100 µM	> 100 µM	> 100 µM	> 100 µM	> 100 µM	56.7 µM	> 100 µM	> 100 µM	> 100 µM
C/C(CC/C(C)=N/O)=N\O	> 100 µM	> 100 µM	> 100 µM	> 100 µM	> 100 µM	> 100 µM	> 100 µM	> 100 µM	> 100 µM	> 100 µM
CS(=O)(=O)c1ccc(/C=N/NC(N)=S)cc1	> 100 µM	> 100 µM	> 100 µM	> 100 µM	> 100 µM	> 100 µM	> 100 µM	> 100 µM	> 100 µM	> 100 µM
CN(C)c1ccc(/C=c2/c3ccccc3n3c2c2ccccc2[n+]3C)cc1	2.88 µM	0.488 µM	4.19 µM	2.41 µM	2.27 µM	4.71 µM	15.3 µM	0.619 µM	8.29 µM	1.51 µM
O=C1/C(=C/c2ccccc2)CCCC1CN1CCCCC1 (centres undefined)	11.8 µM	10.4 µM	27.3 µM	4.85 µM	8.38 µM		9.87 µM	2.05 µM	20.5 µM	22 µM
COc1ccccc1/C=C/C1=NN(c2cccc(S(=O)(=O)O)c2)C2(C1)SCC(=O)N2c1nc2ccccc2s1 (centres undefined)	> 100 µM	> 100 µM	> 100 µM	> 100 µM	> 100 µM	> 100 µM	> 100 µM	> 100 µM	> 100 µM	> 100 µM
O=c1c2cc(-c3ccccc3)sc2nc2n1N=C(c1ccccc1)CS2	32.5 µM	> 100 µM	> 100 µM	> 100 µM		> 100 µM	> 100 µM	> 100 µM	89.1 µM	91.5 µM
COc1ccc(/C=C2\CCCC(CN(C)C)C2=O)cc1 (centres undefined)	5.86 µM	4.45 µM	30.2 µM	1.7 µM	7.51 µM	6.79 µM	33.5 µM	2.85 µM	21.6 µM	8.96 µM
CC1CC(C)C(O)C(C2CC(CC(=O)NC3CCCCC3)CC(=O)O2)C1 (centres undefined)	> 100 µM	> 100 µM	> 100 µM	> 100 µM	> 100 µM	> 100 µM	> 100 µM	> 100 µM	> 100 µM	> 100 µM
Cc1c(NC(=S)NN)c(=O)n(-c2ccccc2)n1C		> 100 µM	> 100 µM	> 100 µM	> 100 µM	> 100 µM	> 100 µM	> 100 µM	> 100 µM	> 100 µM
CC(C)(C)OC(=O)NCCCCC(N)C(N)=O (centres undefined)	> 100 µM	> 100 µM	> 100 µM	> 100 µM	> 100 µM	> 100 µM	> 100 µM	> 100 µM	> 100 µM	> 100 µM
ClCCCN(CCCCl)c1ccc(C=Nc2cccc(Cl)c2)cc1	> 100 µM	> 100 µM	> 44.6 µM	> 100 µM	> 100 µM	> 83.9 µM	8.67 µM	> 100 µM	> 100 µM	> 77 µM
NCCSc1nc2ccccc2s1	> 100 µM	> 100 µM	> 100 µM	> 100 µM	> 100 µM	> 100 µM	92.9 µM	75.7 µM	62.1 µM	> 100 µM
CCCCCCCC1C(C)c2c([nH]c3ccccc23)C2C(=O)N(c3ccc(OC)cc3)C(=O)C21 (centres undefined)	5.74 µM	> 10 µM	> 10 µM	> 10 µM	> 10 µM	> 6.39 µM	> 8.21 µM	> 10 µM	3.91 µM	7.65 µM
O=C(Nc1nnc(-c2ccccc2)o1)C(SC(=S)N1CCCCC1)c1ccccc1 (centres undefined)	75.7 µM	> 100 µM	71.6 µM	29.1 µM	> 100 µM	> 100 µM	93.5 µM	97.6 µM	> 100 µM	> 100 µM
Cc1c2c(c(C)n1-c1ccccc1)C(=O)N(CCCCN1CCN(c3ccccc3)CC1)C2=O	> 100 µM	21.7 µM	> 100 µM	54.8 µM	> 100 µM	37.6 µM	40.3 µM	39.4 µM	> 100 µM	22.2 µM
COc1cc(-c2cn(S(=O)(=O)c3ccc(C)cc3)c3ccccc23)nc(-c2cn(S(=O)(=O)c3ccc(C)cc3)c3ccccc23)n1	> 100 µM	3.31 µM	1.85 µM	> 100 µM		> 100 µM	> 100 µM	0.506 µM	> 100 µM	> 100 µM

SMILES	TGI (ACHN renal)	TGI (COLO 205 colon)	TGI (DU-145 prostate)	TGI (HCT-15 colon)	TGI (IGROV1 ovarian)	TGI (K-562 leukemia)	TGI (NCI-H226 lung)	TGI (NCI-H522 lung)	TGI (SNB-75 CNS)	TGI (UACC-257 melanoma)
CC(=O)OC1=c2ccccc2=C(O)C2C1C=NN2C(C)=O (centres undefined)	> 100 µM	> 100 µM	> 100 µM	> 100 µM	> 100 µM	> 100 µM	> 100 µM	> 100 µM	> 100 µM	> 100 µM
C/C=C/[C@H]1O[C@@](O)([C@@H](C)[C@H](O)[C@H](C)[C@H]2OC(=O)/C(OC)=C/C(C)=C/[C@@H](C)[C@@H](O)[C@@H](CC)[C@@H](O)[C@H](C)C/C(C)=C/C=C/[C@@H]2OC)C[C@H](OC2CC(O)C(O)C(C)O2)[C@@H]1C (some centres undefined)	12.8 µM	3.96 µM	15.1 µM	8.8 µM	17 µM		11.7 µM	1.48 µM	46 µM	< 0.0075 µM
CC(=O)N(C)SCC(NC(=O)C(Cc1ccccc1)NC(=O)OCc1ccccc1)C(=O)NC(Cc1ccccc1)C(=O)NC(Cc1cn(C=O)c2ccccc12)C(=O)NC(CCCCNC(=O)OCc1ccccc1)C(=O)NC(C(=O)NC(CSN(C)C(C)=O)/C(O)=N\O)C(C)OCc1ccccc1 (centres undefined) (Cbz-F[X31]FW(For)K(Cbz)T(Bn)-X47; configuration not given here)	> 100 µM	> 100 µM	> 100 µM	> 100 µM	> 100 µM	> 100 µM	> 100 µM	> 100 µM	> 100 µM	> 100 µM
NC(Cc1ccc(S(=O)(=O)O)cc1)C(=O)NC(CCCCNC(=O)NCCCCC(NC(=O)C(N)Cc1ccc(S(=O)(=O)O)cc1)C(=O)NC(Cc1ccc(S(=O)(=O)O)cc1)C(=O)O)C(=O)NC(Cc1ccc(S(=O)(=O)O)cc1)C(=O)O (centres undefined)	> 100 µM	> 100 µM	> 100 µM	> 100 µM	> 100 µM	> 100 µM	> 100 µM	> 100 µM	> 100 µM	> 100 µM
CCC(C#N)(c1ccccc1)N(CCc1ccccc1)C(=O)c1ccccc1 (centres undefined)	> 100 µM	> 100 µM	> 100 µM	> 100 µM	> 100 µM	> 100 µM	39.7 µM	> 100 µM	78.7 µM	> 100 µM
Cc1cc(N(CCC#N)CCC#N)ccc1/C(N=Nc1ccc(Cl)cc1)=N\NC(=O)c1cc(Cl)ccc1O	> 100 µM	> 100 µM	> 100 µM	> 100 µM	> 100 µM	> 100 µM	85.1 µM	37 µM	84.4 µM	> 100 µM
CC(NC(=O)C(Cc1ccc(OC(=O)c2ccccc2)cc1)NC(=O)OC(C)(C)C)C(=O)NC(Cc1ccccc1)C(=O)NCC(N)=O (centres undefined) (Boc-Y(Bz)AFG-NH2; configuration not given here)	54.6 µM	84.8 µM	42.3 µM	> 100 µM	40.7 µM	57.4 µM	51 µM	42.6 µM	49.6 µM	37 µM
Cc1c(C#N)c2nnn(-c3ccc(Cl)cc3)c(=O)n2c1-c1ccccc1	83.4 µM	0.319 µM	8.44 µM	11.9 µM	16.9 µM	20.1 µM	2.02 µM	0.207 µM	39.7 µM	33.6 µM
NNC(=O)CSc1nc2ccc(I)cc2c(=O)n1Cc1ccccc1	40.2 µM	53.2 µM	> 100 µM	> 100 µM	69.3 µM	88 µM	41.9 µM	30.7 µM	50.4 µM	44 µM
Nc1sc2c(c1C(=O)c1ccc(Cl)c(Cl)c1)CCCC2	> 100 µM	> 100 µM	> 100 µM	> 100 µM		> 100 µM	> 100 µM	50.2 µM	86.4 µM	> 100 µM
O=C(O)CC(NC(=O)C(F)(F)F)C(=O)NC(Cc1ccc(O)cc1)C(=O)O (stereo not drawn) (Tfa-Asp-Tyr-OH; configuration not given here)	> 50 µM	> 50 µM	> 50 µM	> 50 µM	> 50 µM	> 50 µM	> 50 µM	> 50 µM	> 50 µM	> 50 µM
O=C(OCc1ccccc1CN1CCOCC1)c1cccc(Br)c1	> 100 µM	> 100 µM	> 100 µM	> 100 µM	> 100 µM	> 100 µM	> 100 µM	53.4 µM	> 100 µM	63.4 µM
CN(C)C(Cc1cnc[nH]1)C(=O)N1CCCC1C(N)=O (centres undefined)	> 100 µM	> 100 µM	> 100 µM	> 100 µM	> 100 µM	> 100 µM	> 100 µM	> 100 µM	> 100 µM	
Brc1ccc2[nH]cc(-c3csc(-c4ccccn4)n3)c2c1	23.7 µM	> 56.3 µM	> 86.5 µM	> 100 µM	> 88.8 µM	> 100 µM	34.8 µM	> 100 µM	36.4 µM	> 85.2 µM
CC(=N\N)/C(C)=N/N=C(C)/C(C)=N/N=C(C)/C(C)=N/N=C(C)/C(C)=N/N		> 100 µM	> 100 µM	> 100 µM	> 100 µM	> 100 µM	> 100 µM	> 100 µM	> 100 µM	> 100 µM
O=C(CN1CCN(Cc2ccccc2)CC1)c1ccc2[nH]c(=O)oc2c1	> 100 µM	> 100 µM	> 100 µM	> 100 µM	> 100 µM	> 100 µM	> 100 µM	> 100 µM	> 100 µM	> 100 µM
Nc1cc2c3c(c1)Oc1cc(N)cc4c1C3c1c(cc(N)cc1O4)O2	> 51.3 µM	34.3 µM	46.7 µM	> 31.6 µM	> 44.9 µM	> 100 µM	12.8 µM	45.5 µM	> 48.8 µM	> 85.1 µM
NCC(=O)NC1(c2cc3ccccc3s2)CCCCC1	56.9 µM	32.5 µM	> 100 µM	> 100 µM	> 100 µM	24.6 µM	69.5 µM	> 100 µM	83.7 µM	32.1 µM
CC[C@@]1(N(C)C)C(=O)OCc2c1cc1n(c2=O)Cc2cc3ccccc3nc2-1	42.2 µM	> 100 µM	98.1 µM	> 100 µM		> 100 µM	90.1 µM	28.7 µM	34.5 µM	> 100 µM
COc1cc2c(/C=C3/C(=O)N(C)c4ccccc43)c(Cl)[nH]c2cc1C	> 55.9 µM	0.579 µM	3.44 µM	6.34 µM	2.7 µM		> 100 µM	0.518 µM	46.2 µM	97.6 µM
